Measured values reported in patent US20260206755A1, “COMPOUNDS AND COMPOSITIONS HAVING KNOCK-DOWN OR BLOOD FEED INHIBITION ACTIVITY AGAINST INSECT PESTS” (priority 2017, published 2026).
Like-named read-outs stand apart in the source and are kept apart here.

Tested on: Anopheles stephensi
Test: Anopheles stephensi treated well plate contact test: knockdown and mortality
Format: in vivo
Conditions: for Knock Down, with TFNA-AM / Knock Down, without TFNA-AM / pest or weed control at 0.02 ppm / pest or weed control at 0.2 ppm / pest or weed control at 2 ppm / pest or weed control at 20 ppm / pest or weed control at 200 ppm: knockdown after 1 hour; for mortality at 0.02 ppm / mortality at 0.2 ppm / mortality at 2 ppm / mortality at 20 ppm / pest or weed control at 0.02 ppm / pest or weed control at 0.2 ppm / pest or weed control at 2 ppm / pest or weed control at 20 ppm / mortality at 200 ppm / pest or weed control at 200 ppm: Anopheles stephensi; for pest or weed control at 0.02 ppm / pest or weed control at 0.2 ppm / pest or weed control at 2 ppm / pest or weed control at 20 ppm / pest or weed control at 200 ppm: read-out: Knock Down, without TFNA-AM
Procedure: Examples Anopheles stephensi (Indian Malaria Mosquito)
The individual wells of twelve (12) well tissue culture plates were treated with 200 μl of an ethanol solution containing a test compound of Table 1 or Table 2 at a defined concentration and repeated with also 200 μl of an ethanol solution containing in addition 2 ppm TFNA-AM. Once the deposits were dry, five non-blood fed adult female Anopheles stephensi (between two to five day old) were added to each well, and sustained with a 10% sucrose solution in a cotton wool plug. Assessment of the knockdown after 1 hour, and mortality after 24 and 48 hours was carried out.
In case of multiple tests, the mean value is reported.

[1] = test compound 0.02 ppm plus 2 ppm TFNA-AM, after 24 hours
[2] = test compound 0.02 ppm plus 2 ppm TFNA-AM, after 48 hours
[3] = test compound 0.02 ppm plus 2 ppm TFNA-AM
[4] = test compound 0.02 ppm, without TFNA-AM
[5] = test compound 0.2 ppm plus 2 ppm TFNA-AM, after 24 hours
[6] = test compound 0.2 ppm plus 2 ppm TFNA-AM, after 48 hours
[7] = test compound 0.2 ppm plus 2 ppm TFNA-AM
[8] = test compound 0.2 ppm, without TFNA-AM, after 24 hours
[9] = test compound 0.2 ppm, without TFNA-AM, after 48 hours
[10] = test compound 0.2 ppm, without TFNA-AM
[11] = test compound 2 ppm plus 2 ppm TFNA-AM, after 24 hours
[12] = test compound 2 ppm plus 2 ppm TFNA-AM, after 48 hours
[13] = test compound 2 ppm plus 2 ppm TFNA-AM
[14] = test compound 2 ppm, without TFNA-AM, after 24 hours
[15] = test compound 2 ppm, without TFNA-AM, after 48 hours
[16] = test compound 2 ppm, without TFNA-AM
[17] = test compound 20 ppm plus 2 ppm TFNA-AM, after 24 hours
[18] = test compound 20 ppm plus 2 ppm TFNA-AM, after 48 hours
[19] = test compound 20 ppm plus 2 ppm TFNA-AM
[20] = test compound 20 ppm, without TFNA-AM, after 24 hours
[21] = test compound 20 ppm, without TFNA-AM, after 48 hours
[22] = test compound 20 ppm, without TFNA-AM
[23] = 24 h, read-out: mortality % 24, without TFNA-AM
[24] = 48 h, read-out: mortality % 48, without TFNA-AM
[25] = test compound 0.2 ppm, without TFNA-AM, after 24 hours, read-out: mortality % 24, without TFNA-AM
[26] = test compound 0.2 ppm, without TFNA-AM, after 48 hours, read-out: mortality % 48, without TFNA-AM
[27] = test compound 2 ppm, without TFNA-AM, after 24 hours, read-out: mortality % 24, without TFNA-AM
[28] = test compound 2 ppm, without TFNA-AM, after 48 hours, read-out: mortality % 48, without TFNA-AM
[29] = test compound 20 ppm, without TFNA-AM, after 24 hours, read-out: mortality % 24, without TFNA-AM
[30] = test compound 20 ppm, without TFNA-AM, after 48 hours, read-out: mortality % 48, without TFNA-AM
[31] = test compound 200 ppm, without TFNA-AM, after 24 hours, read-out: mortality % 24, without TFNA-AM
[32] = test compound 200 ppm, without TFNA-AM, after 48 hours, read-out: mortality % 48, without TFNA-AM
[33] = test compound 200 ppm, without TFNA-AM, adult females
[34] = test compound 200 ppm plus 2 ppm TFNA-AM, after 24 hours
[35] = test compound 200 ppm plus 2 ppm TFNA-AM, after 48 hours
[36] = test compound 200 ppm plus 2 ppm TFNA-AM

SMILES	mortality % 24, with TFNA-AM [1] [%]	mortality % 48, with TFNA-AM [2] [%]	Knock Down, with TFNA-AM [3] [%]	mortality % 24, with TFNA-AM [5] [%]	mortality % 48, with TFNA-AM [6] [%]	Knock Down, with TFNA-AM [7] [%]	mortality % 24, with TFNA-AM [11] [%]	mortality % 48, with TFNA-AM [12] [%]	Knock Down, with TFNA-AM [13] [%]	mortality % 24, with TFNA-AM [17] [%]	mortality % 48, with TFNA-AM [18] [%]	Knock Down, with TFNA-AM [19] [%]	pest or weed control at 0.02 ppm [4] [%]	pest or weed control at 0.2 ppm [10] [%]	pest or weed control at 2 ppm [16] [%]	pest or weed control at 20 ppm [22] [%]	mortality at 0.2 ppm [25] [%]	mortality at 0.2 ppm [26] [%]	mortality at 2 ppm [27] [%]	mortality at 2 ppm [28] [%]	other results
CC(C)=C[C@@H]1[C@@H](C(=O)O[C@H](C#N)c2cccc(Oc3ccccc3)c2)C1(C)C (relative stereo) [d-d, trans cyphenothrin]	60	20	100	60	100	100	100	100	100	100	100	100	–	–	–	–	–	–	–	–	mortality % 24, without TFNA-AM (test compound 0.02 ppm, without TFNA-AM, after 24 hours): 0%; mortality % 48, without TFNA-AM (test compound 0.02 ppm, without TFNA-AM, after 48 hours): 0%; Knock Down, without TFNA-AM [4]: 0%; mortality % 24, without TFNA-AM [8]: 0%; mortality % 48, without TFNA-AM [9]: 0%; Knock Down, without TFNA-AM [10]: 0%; mortality % 24, without TFNA-AM [14]: 0%; mortality % 48, without TFNA-AM [15]: 0%; Knock Down, without TFNA-AM [16]: 0%; mortality % 24, without TFNA-AM [20]: 40%; mortality % 48, without TFNA-AM [21]: 60%; Knock Down, without TFNA-AM [22]: 0%
CCOC(=O)CC(SP(=S)(OC)OC)C(=O)OCC (stereo not drawn) [Malathion]	0	0	100	0	0	100	100	100	100	100	100	100	20	20	40	40	–	–	–	–	mortality at 0.02 ppm [23]: 0%; mortality at 0.2 ppm [23]: 0%; mortality at 2 ppm [23]: 100%; mortality at 20 ppm [23]: 100%; mortality at 0.02 ppm [24]: 0%; mortality at 0.2 ppm [24]: 0%; mortality at 2 ppm [24]: 100%; mortality at 20 ppm [24]: 100%
CC(C)N1C(=O)N(c2ccccc2)CS/C1=N\C(C)(C)C [Buprofezin]	–	–	–	80	60	100	100	60	100	100	60	100	–	0	0	0	0	0	0	0	mortality at 20 ppm [29]: 0%; mortality at 20 ppm [30]: 0%; mortality at 200 ppm [31]: 0%; mortality at 200 ppm [32]: 0%; pest or weed control at 200 ppm [33]: 0%; mortality % 24, with TFNA-AM [34]: 80%; mortality % 48, with TFNA-AM [35]: 40%; Knock Down, with TFNA-AM [36]: 100%
CCOc1ccc(C(C)(C)COCc2cccc(Oc3ccccc3)c2)cc1 [Etofenprox]	60	60	100	100	100	100	100	100	100	100	100	100	0	0	0	60	20	20	80	80	mortality at 0.02 ppm (test compound 0.02 ppm, without TFNA-AM, after 24 hours, read-out: mortality % 24, without TFNA-AM): 0%; mortality at 0.02 ppm (test compound 0.02 ppm, without TFNA-AM, after 48 hours, read-out: mortality % 48, without TFNA-AM): 0%; mortality at 20 ppm [29]: 100%; mortality at 20 ppm [30]: 100%
CN(C(=O)c1ccccc1)c1cccc(C(=O)Nc2c(Br)cc(C(F)(C(F)(F)F)C(F)(F)F)cc2C(F)(F)F)c1F [Broflanilide]	–	–	–	87	93	100	100	100	100	100	100	93	–	–	–	–	–	–	–	–	mortality % 24, without TFNA-AM [8]: 0%; mortality % 48, without TFNA-AM [9]: 20%; Knock Down, without TFNA-AM [10]: 0%; mortality % 24, without TFNA-AM [14]: 100%; mortality % 48, without TFNA-AM [15]: 100%; Knock Down, without TFNA-AM [16]: 0%; mortality % 24, without TFNA-AM [20]: 100%; mortality % 48, without TFNA-AM [21]: 100%; Knock Down, without TFNA-AM [22]: 0%; mortality % 24, with TFNA-AM [34]: 100%; mortality % 48, with TFNA-AM [35]: 100%; Knock Down, with TFNA-AM [36]: 87%; mortality % 24, without TFNA-AM (test compound 200 ppm, without TFNA-AM, after 24 hours): 100%; mortality % 48, without TFNA-AM (test compound 200 ppm, without TFNA-AM, after 48 hours): 100%; Knock Down, without TFNA-AM [33]: 0%
COP(=S)(OC)Oc1ccc([N+](=O)[O-])c(C)c1 [Fenitrothion]	40	40	100	80	100	100	100	100	100	100	100	100	0	0	0	0	–	–	–	–	mortality at 0.02 ppm [23]: 0%; mortality at 0.2 ppm [23]: 20%; mortality at 2 ppm [23]: 100%; mortality at 20 ppm [23]: 100%; mortality at 0.02 ppm [24]: 0%; mortality at 0.2 ppm [24]: 100%; mortality at 2 ppm [24]: 100%; mortality at 20 ppm [24]: 100%
CO/C=C(/C(=O)OC)c1ccccc1Oc1cc(C(F)(F)F)ccn1 [Compound 49]	–	–	–	50	10	90	90	90	100	100	90	100	–	0	0	50	0	0	60	60	mortality at 20 ppm [29]: 100%; mortality at 20 ppm [30]: 100%; mortality at 200 ppm [31]: 100%; mortality at 200 ppm [32]: 100%; pest or weed control at 200 ppm [33]: 50%; mortality % 24, with TFNA-AM [34]: 100%; mortality % 48, with TFNA-AM [35]: 90%; Knock Down, with TFNA-AM [36]: 100%
